A short description of assay [1]: competition ELISA for LPS-binding capacity. To be noted: competition with biotinylated LALF32-51 at 0.2 μM; analogous peptides 10 μM to 0.01 μM; FIG. 1A. Details: species or system E. coli. The method, then:
This assay consists on a competition ELISA system (Hardy E., et al (1994) Enhanced ELISA sensitivity using TCA for efficient coating of biologically active LPS or Lipid A to the solid phase. J. Immunol. Meth. Vol. 176:111-116). Polystyrene plates (Costar, USA) were coated with LPS from E. coli 0111:B4 (1 μg/ml) with 0.2% trichloroacetic acid (TCA). Plates were incubated overnight at 37° C. and further washed ten times with 1× phosphate-buffered saline (1×PBS) plus 0.1% tween-20 (washing solution). The binding of analogous peptides to the LPS fixed to the solid surface was evaluated by a competition ELISA with the biotinylated LALF32-51 peptide at 0.2 μM, obtaining a 90% of maximum LPS binding. To estimate the inhibition curves, different concentrations of the analogous peptides were used, from 10 μM to 0.01 μM and the curve of the LALF32-51 peptide as experimental control. The biotinylated LALF32-51 was incubated in the presence of the analogous peptides for 2 h at 37° C. and plates were washed 5 times after that time with washing solution. The biotinylated LALF32-51 bound to LPS was detected by incubating for 45 min at 37° C. with a streptavidin-peroxidase conjugate at a 1:2,000 dilution. Plates were washed 5 times with washing solution and the substrate solution was added (0.05 M citrate-phosphate buffer, pH 5.5, 1 tablet of 3,3′,5,5′-tetramethylbenzidine and 0.025% hydrogen peroxide). After 15 min incubation, the reaction was stopped by adding 2 M sulphuric acid. The absorbance was quantified at 450 nm in a plate reader (Sensident Scan). There is a correlation between optical density values and the LPS-binding capacity of analogous peptides. Analogous peptides with higher LPS-binding capacity show inhibition curves of lower O.D. compared to the inhibition curve of the LALF32-51 peptide.
Analogous peptides with lower LPS-binding capacity present inhibition curves with […], compared to the inhibition curve of the LALF32-51 peptide.
FIG. 1B represents the inhibition percentages of analogous peptides, at a fixed […] concentration, according to their capacity to displace the binding of the biotinylated LALF32-51 (0.2 μM) to LPS adsorbed to the solid surface. % de inhibición={1−(([O.D.]sample−[O.D.]min)/([O.D.]max−[O.D.]min))}×100 [O.D.] sample: Optical density value in the presence of a fixed concentration of analogous peptides; [O.D.] min: ELISA background; [O.D.] max: Optical density value without analogous peptides.
In general terms: An ELISA detects its analyte on a solid surface through an enzyme-linked reagent.

For assay [2], the system named is IFN-α gene. In words: IFN-α gene expression in human mononuclear cells (RT-PCR). It counts as cell-based. To be noted: 40 μg/ml, 18 h; for expression of the IFN-α gene: mRNA normalized against β-actin, FIG. 3A; for expression of the IFN-α gene compared to the LALF32-51 peptide: FIG. 3B. Here is the method:
(§1) For this assay, human mononuclear cells were isolated by a Ficoll-Hypaque gradient from a leukocyte concentrate or “Buffy Coat” of a donor. Up to 5×10^6 were seeded in 24-well plates in RPMI 1640 medium supplemented with 10% calf fetal serum. Each peptide was further added at 40 μg/ml in a 0.1 ml volume of RPMI medium and cells were cultured for 18 h at 37° C. and 5% of CO2. Total RNA was extracted by using the TriReagent method. Afterwards, the expressions of IFN-α, IFN-γ and IL-12 genes were determined by the reverse transcription reaction and PCR amplification (RT-PCR kit, Perkin Elmer). Results are shown as relative amounts of messenger RNA normalized against expression levels of the β-actin housekeeping gene.

Assay [3] deals with IFN-γ gene. In words: IFN-γ gene expression in human mononuclear cells (RT-PCR). It counts as cell-based. To be noted: 40 μg/ml, 18 h; mRNA normalized against β-actin; FIG. 3A. The method, then: as §1
Assay [4] relates to TC-1 tumor cells. In words: anti-tumoral effect in the TC-1 tumor model. It counts as in vivo. To be noted: 4 mg per kg s.c.; for survival of mice / tumor progression (tumor mass): at 100 mm^3 tumor volume and after 10 days, FIG. 4; for survival of animals compared to the LALF32-51 peptide: Log Rank, *p<0.05. The method, then: Eight-to-ten weeks-old C57BI/6 female mice were used for this assay (n=10 animals per experimental group). For tumor graft, TC-1 tumor cells derived from C57BI/6 malignant epithelial lung cells were used, being resuspended in phosphate-buffered saline (PBS). An amount of 50,000 cells in a 200 μl volume was inoculated to mice by subcutaneous route in the right hind limb. The first peptide administration was carried out by subcutaneous route in the right flank once tumor reached a 100 mm^3 volume, and the second was carried out after 10 days. In this assay, a 4 mg per kg of weight dose was evaluated (80 μg/mice). Animal survival and tumor mass were the parameters evaluated to measure the anti-tumoral effect peptides of interest, as shown in FIGS. 4A and 4B. […] The Log Rank method was used as statistical analysis for detecting significant differences between groups.

In assay [5] the test system is IL-12 gene. Description: IL-12 gene expression in human mononuclear cells (RT-PCR). It counts as cell-based. To be noted: 40 μg/ml, 18 h; mRNA normalized against β-actin; FIG. 3A. Here is the method: as §1
Assay [6] can be described thus: competition ELISA for heparin-binding capacity. To be noted: for heparin binding: peptides at 2 μM with 250 units of heparin, FIG. 2. The method, then:
This assay consists on a competition ELISA system, similar to the previously described one. The biotinylated LALF32-51 peptide was adsorbed to polystyrene plates (Costar, USA) in 1×PBS and incubated overnight at 4° C. Analogous peptides L-2, L-8, L-12 and L-20 were mixed at 2 μM with 250 units of heparin (Sodic Heparin, 5,000 U/ml, Liorad) in 1×PBS plus 0.1% of bovine serum albumin (BSA). Afterwards, mixes were added to an ELISA plate containing 0.02 μM of the biotinylated LALF32-51 peptide adsorbed to the solid surface. After a 1 h-incubation at room temperature, plates were washed five times with washing solution and the biotinylated LALF32-51 peptide fixed to the solid surface was detected by incubating for 45 min at 37° C. with streptavidin-peroxidase conjugate at a 1:2,000. Afterwards, plates were washed five times with washing solution and the substrate solution was added. After an additional incubation for 15 min, the reactions were stopped with 2 M sulphuric acid solution. The lack of heparin binding to the analogous peptides correlates with the […] optical density, because they are unable to displace the heparin bound to the biotinylated LALF32-51 peptide adsorb to the solid surface. The unlabeled LALF32-51 peptide at a 100× molar excess was used as control of the assay.

Take “HYRIKPTFARLKWKYKGKFW [Peptide L-9, alanine-substituted analogue of LALF 32-51]”: in assay [1], the LPS-binding capacity result is recorded as “retaining that capacity”.

As for “HYRIKPTFRRLKWKYKGKAW [Peptide L-19, alanine-substituted analogue of LALF 32-51]”, the LPS-binding capacity result in assay [1] is “retaining that capacity”.

“HYRIKPTFRRLKWKYKGKFA [Peptide L-20, alanine-substituted analogue of LALF 32-51]”: in assay [2], the “expression of the IFN-α gene” value is “capable of inducing the expression”. In addition, the LPS-binding capacity result in assay [1] is listed as “lose the capacity to bind LPS”. Besides, the “expression of the IFN-γ gene” value in assay [3] is “capable of inducing the expression”. Further, in assay [4], the survival of mice result is reported as “prolonging survival of mice”, the “tumor progression (tumor mass)” value is recorded as “effective for inhibiting tumor progression” and the “survival of animals compared to the LALF32-51 peptide” value is “significantly increase the survival of animals”. The “expression of the IL-12 gene” value in assay [5] is on record as “capable of inducing the expression”. In addition, in assay [6], the heparin binding result was “unable to bind heparin”.

Turning to “HYRIKPTFRRLKWKYKGKFW [LALF32-51, reference compound]”, the “heparin binding (assay control)” value in assay [6] (unlabeled peptide at a 100× molar excess) is “binding to heparin”.

Turning to “HYRIKPTARRLKWKYKGKFW [Peptide L-8, alanine-substituted analogue of LALF 32-51]”, in assay [2], the “expression of the IFN-α gene compared to the LALF32-51 peptide” value was “more effective” and the “expression of the IFN-α gene” value is reported as “capable of inducing the expression”. Besides, the LPS-binding capacity entry in assay [1] is listed as “lose the capacity to bind LPS”. The “expression of the IFN-γ gene” value in assay [3] is “capable of inducing the expression”. Further, in assay [4], the survival of mice entry was “prolonging survival of mice”, the “tumor progression (tumor mass)” value is recorded as “effective for inhibiting tumor progression” and the “survival of animals compared to the LALF32-51 peptide” value is on record as “significantly increase the survival of animals”. For the same sequence, the “expression of the IL-12 gene” value in assay [5] is “capable of inducing the expression”. Also, the heparin binding entry in assay [6] is given as “unable to bind heparin”.

With “HYAIKPTFRRLKWKYKGKFW [Peptide L-3, alanine-substituted analogue of LALF 32-51]”, in assay [1], the LPS-binding capacity result is listed as “higher LPS binding capacity”.

For “HYRIKPTFRRLAWKYKGKFW [Peptide L-12, alanine-substituted analogue of LALF 32-51]”, in assay [2], the “expression of the IFN-α gene compared to the LALF32-51 peptide” value is recorded as “more effective” and the “expression of the IFN-α gene” value was “capable of inducing the expression”. Also, the LPS-binding capacity result in assay [1] is reported as “lose the capacity to bind LPS”. Further, the “expression of the IFN-γ gene” value in assay [3] is given as “capable of inducing the expression”. For the same sequence, in assay [4], the survival of mice entry is “prolonging survival of mice”, the “tumor progression (tumor mass)” value is recorded as “effective for inhibiting tumor progression” and the “survival of animals compared to the LALF32-51 peptide” value is listed as “significantly increase the survival of animals”. In addition, the “expression of the IL-12 gene” value in assay [5] is “capable of inducing the expression”. The heparin binding result in assay [6] is recorded as “unable to bind heparin”.

The values are drawn from patent US8283324B2, “Immunomodulatory and anti-tumour peptides” (Centro de Ingenieria Genetica y Biotecnologia, priority 2006, dated 2012).
